The text below walks through data of patent US8778923B2, “GLP-1 receptor modulators” (Receptos, Inc., priority 2011, dated 2014).

In general, EC50 refers to the concentration needed to bring the measured effect to its halfway point.

This assay deals with T1, GLP-1R (Homo sapiens, UniProt P43220).
T1 construct: host or cells: CRE-bla CHO-K1
T1 sequence (P43220 24-463): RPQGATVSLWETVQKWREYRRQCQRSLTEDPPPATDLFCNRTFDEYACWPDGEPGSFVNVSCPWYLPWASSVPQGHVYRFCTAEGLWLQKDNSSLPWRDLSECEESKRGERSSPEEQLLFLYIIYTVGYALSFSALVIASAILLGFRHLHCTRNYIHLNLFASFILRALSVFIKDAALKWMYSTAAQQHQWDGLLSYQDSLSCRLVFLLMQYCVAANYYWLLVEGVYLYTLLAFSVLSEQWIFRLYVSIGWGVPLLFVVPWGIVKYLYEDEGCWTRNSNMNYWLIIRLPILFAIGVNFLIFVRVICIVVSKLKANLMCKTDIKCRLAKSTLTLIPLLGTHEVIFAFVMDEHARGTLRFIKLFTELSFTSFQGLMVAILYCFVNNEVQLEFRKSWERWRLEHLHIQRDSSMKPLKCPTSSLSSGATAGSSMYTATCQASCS
T1 sequence (P01275 100-127 partner limits assumed): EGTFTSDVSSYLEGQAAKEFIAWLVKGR
In words: EC20 GLP-1(9-36) PAM cAMP assay: dose response of compound in the presence of fixed concentration of GLP-1(9-36). It is filed as cell-based. The note with it: GLP-1R CRE-bla CHO-K1 cells, compound dose response in presence of fixed concentration of GLP-1(9-36). The method, boiled down:
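Positive allosteric modulation read as cAMP rise: 12-point compound titration combined with a fixed EC20 level of GLP-1(9-36) on GLP-1R CHO-K1 cells, IBMX present, 30 min at 37 °C. Luminescent HitHunter signal converted to cAMP; nonlinear fit gave EC50 and Emax.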
Consider `CCCCCCCOc1ccc(-c2cnc(-c3ccc(C[C@H](NC(=O)c4ccc(C(C)(C)C)cc4)C(=O)NCCC(=O)O)cc3)nc2)cc1` [Compound 298, (S)-3-(2-(4-(tert-butyl)benzamido)-3-(4-(5-(4-(heptyloxy)phenyl)pyrimidin-2-yl)phenyl)propanamido)propanoic acid], for which the EC50 is under 800 nM.

For the compound `CCCCCCCOc1ccc(-c2cnc(-c3ccc(C[C@H](NC(=O)c4ccc(C(C)(C)C)cc4)C(=O)NS(C)(=O)=O)cc3)nc2)cc1` [Compound 299, (S)-4-(tert-butyl)-N-(3-(4 (5 (4 (heptyloxy)phenyl)pyrimidin-2-yl)phenyl)-1-(methylsulfonamido)-1-oxopropan-2-yl)benzamide], the EC50 is under 800 nM.

Take `CCCCCCCOc1ccc(-c2cnc(-c3ccc(C[C@H](NC(=O)c4ccc(C(C)(C)C)cc4)C(=O)N[C@@H](CC(N)=O)C(=O)O)cc3)nc2)cc1` [Compound 300]: the 50% effective concentration (EC50) is under 800 nM.

Take `CCCCCCCOc1ccc(-c2cnc(-c3ccc(C[C@H](NC(=O)c4ccc(C(C)(C)C)cc4)C(=O)NCCCC(=O)O)cc3)nc2)cc1` [Compound 301]: the EC50 lay within 800 to 2500 nM.

`CCCCCCCOc1ccc(-c2cnc(-c3ccc(C[C@H](NC(=O)c4ccc(C(C)(C)C)cc4)C(=O)N(C)CCC(=O)O)cc3)nc2)cc1` [Compound 302]: the EC50 was 2500 to 5000 nM.

Turning to `CCCCCCCOc1ccc(-c2cnc(-c3ccc(C[C@H](NC(=O)c4ccc(C(C)(C)C)cc4)C(=O)NCC(=O)Nc4nn[nH]n4)cc3)nc2)cc1` [Compound 303], the EC50 was 800 to 2500 nM.

Consider `CCCCCCCOc1ccc(-c2cnc(-c3ccc(C[C@H](NC(=O)c4ccc(C(C)(C)C)cc4)C(=O)N(C)CC(=O)O)cc3)nc2)cc1` [Compound 304], for which the EC50 is 800 to 2500 nM.

As to `CCCCCCCOc1ccc(-c2cnc(-c3ccc(C[C@H](NC(=O)c4ccc(C(C)C)cc4)C(=O)N[C@@H](C)C(=O)O)cc3)nc2)cc1` [Compound 305], the EC50 was 800 to 2500 nM.

For the compound `CCCCCCCOc1ccc(-c2cnc(-c3ccc(C[C@H](NC(=O)c4ccc(C(C)C)cc4)C(=O)N[C@@H](CC(N)=O)C(=O)O)cc3)nc2)cc1` [Compound 306], the EC50 is under 800 nM.

For `CCCCCCCOc1ccc(-c2cnc(-c3ccc(C[C@H](NC(=O)c4ccc(C(C)C)cc4)C(=O)N[C@@H](CC(=O)O)C(=O)O)cc3)nc2)cc1` [Compound 307], the EC50 is 800 to 2500 nM.

Consider `CCCCCCCOc1ccc(-c2cnc(-c3ccc(C[C@H](NC(=O)c4ccc(C(C)C)cc4)C(=O)N[C@@H](CC(C)C)C(=O)O)cc3)nc2)cc1` [Compound 308], for which the EC50 was in the range of 800 to 2500 nM.

Regarding `CCCCCCCOc1ccc(-c2cnc(-c3ccc(C[C@H](NC(=O)c4ccc(C(C)C)cc4)C(=O)N[C@@H](CO)C(=O)O)cc3)nc2)cc1` [Compound 309], the EC50 was under 800 nM.

For the compound `CCCCCCCOc1ccc(-c2cnc(-c3ccc(C[C@H](NC(=O)c4ccc(C(C)C)cc4)C(=O)N[C@@H](CCCCN)C(=O)O)cc3)nc2)cc1` [Compound 310], the EC50 was under 800 nM.

Consider `CCCCCCCOc1ccc(-c2cnc(-c3ccc(C[C@H](NC(=O)c4ccc(C(C)C)cc4)C(=O)N[C@@H](Cc4cnc[nH]4)C(=O)O)cc3)nc2)cc1` [Compound 311], for which the EC50 is 800 to 2500 nM.

Regarding `CCCCCCCOc1ccc(-c2cnc(-c3ccc(C[C@H](NC(=O)c4ccc(C(C)C)cc4)C(=O)N[C@H](C)C(=O)O)cc3)nc2)cc1` [Compound 312], the EC50 was 800 to 2500 nM.

Take `CCCCCCCOc1ccc(-c2cnc(-c3ccc(C[C@H](NC(=O)c4ccc(C(C)C)cc4)C(=O)N[C@H](CC(C)C)C(=O)O)cc3)nc2)cc1` [Compound 313]: the EC50 is 800 to 2500 nM.

Turning to `CCCCCCCOc1ccc(-c2cnc(-c3ccc(C[C@H](NC(=O)c4ccc(C(C)C)cc4)C(=O)N[C@H](CCCCN)C(=O)O)cc3)nc2)cc1` [Compound 314], the 50% effective concentration (EC50) fell in the range of 800 to 2500 nM.

Take `CCCCCCCOc1ccc(-c2cnc(-c3ccc(C[C@H](NC(=O)c4ccc(C(C)C)cc4)C(=O)N[C@H](CO)C(=O)O)cc3)nc2)cc1` [Compound 315]: the EC50 was 800 to 2500 nM.

Turning to `CCCCCCCOc1ccc(-c2cnc(-c3ccc(C[C@H](NC(=O)c4ccc(C(C)C)cc4)C(=O)N[C@H](Cc4cnc[nH]4)C(=O)O)cc3)nc2)cc1` [Compound 316], the EC50 is under 800 nM.

For `CCCCCCCOc1ccc(-c2cnc(-c3ccc(C[C@H](NC(=O)c4ccc(C(C)C)cc4)C(=O)NCC(=O)O)cc3)nc2)cc1` [Compound 317], the EC50 was under 800 nM.

Take `CCCCCCOc1ccc(-c2cnc(-c3ccc(C[C@H](NC(=O)c4ccc(C(C)(C)C)cc4)C(=O)NCC(=O)O)cc3)nc2)cc1` [Compound 318]: the EC50 was under 800 nM.

Turning to `CCCCCCCOc1ccc(-c2cnc(-c3ccc(C[C@H](NC(=O)c4ccc(C(C)(C)C)s4)C(=O)NCC(=O)O)cc3)nc2)cc1` [Compound 319, (S)-(2-(5-(tert-butyl)thiophene-2-carboxamido)-3-(4-(5-(4-(heptyloxy)phenyl)pyrimidin-2-yl)phenyl)propanoyl)glycine], the EC50 was under 800 nM.

In the case of `CCCCCCCOc1ccc(-c2cnc(-c3ccc(C[C@H](NC(=O)c4ccc(C(C)(C)C)s4)C(=O)N[C@@H](CCC(N)=O)C(=O)O)cc3)nc2)cc1` [Compound 320, ((S)-2-(5-(tert-butyl)thiophene-2-carboxamido)-3-(4-(5-(4-(heptyloxy)phenyl)pyrimidin-2-yl)phenyl)propanoyl)-L-glutamine], the EC50 is under 800 nM.

As for `CCCCCCCOc1ccc(-c2cnc(-c3ccc(C[C@H](NC(=O)c4ccc(C(C)(C)C)s4)C(=O)N[C@@H](CC(N)=O)C(=O)O)cc3)nc2)cc1` [Compound 321], the EC50 is under 800 nM.

`CCCCCCCOc1ccc(-c2cnc(-c3ccc(C[C@H](NC(=O)c4ccc(C(C)(C)C)s4)C(=O)N[C@@H](CC(=O)O)C(=O)O)cc3)nc2)cc1` [Compound 322]: the concentration giving a half-maximal response (EC50) was in the range of 800 to 2500 nM.

For `CCCCCCCOc1ccc(-c2cnc(-c3ccc(C[C@H](NC(=O)c4ccc(C(C)(C)C)s4)C(=O)N[C@H](CO)C(=O)O)cc3)nc2)cc1` [Compound 323], the EC50 is under 800 nM.

As to `CCCCCCCOc1ccc(-c2cnc(-c3ccc(C[C@H](NC(=O)c4ccc(C(C)(C)C)s4)C(=O)N[C@H](CC(=O)O)C(=O)O)cc3)nc2)cc1` [Compound 324], the EC50 was 800 to 2500 nM.

As to `CCCCCCCOc1ccc(-c2cnc(-c3ccc(C[C@H](NC(=O)c4ccc(C(C)(C)C)s4)C(=O)N[C@H](Cc4cnc[nH]4)C(=O)O)cc3)nc2)cc1` [Compound 325], the 50% effective concentration (EC50) fell in the range of 5000 to 10000 nM.

Consider `CCCCCCCOc1ccc(-c2cnc(-c3ccc(C[C@H](NC(=O)c4ccc(C(C)(C)C)s4)C(=O)N[C@@H](CO)C(=O)O)cc3)nc2)cc1` [Compound 326], for which the EC50 is under 800 nM.

Take `CCCCCCCOc1ccc(-c2cnc(-c3ccc(C[C@H](NC(=O)c4ccc(C(C)(C)C)s4)C(=O)N[C@H](C)C(=O)O)cc3)nc2)cc1` [Compound 327]: the EC50 is under 800 nM.

With `CCCCCCCOc1ccc(-c2cnc(-c3ccc(C[C@H](NC(=O)c4ccc(C(C)(C)C)s4)C(=O)N4CCC[C@H]4C(=O)O)cc3)nc2)cc1` [Compound 328], the EC50 was in the range of 800 to 2500 nM.

As to `CCCCCCCOc1ccc(-c2cnc(-c3ccc(C[C@H](NC(=O)c4ccc(C(C)(C)C)s4)C(=O)N4CCC[C@@H]4C(=O)O)cc3)nc2)cc1` [Compound 329], the EC50 lay within 800 to 2500 nM.

For `CCCCCCCOc1ccc(-c2cnc(-c3ccc(C[C@H](NC(=O)c4ccc(C(C)(C)C)s4)C(=O)N[C@@H](CCC(=O)O)C(=O)O)cc3)nc2)cc1` [Compound 330], the EC50 fell in the range of 800 to 2500 nM.

`CCCCCCCOc1ccc(-c2cnc(-c3ccc(C[C@H](NC(=O)c4ccc(C(C)(C)C)s4)C(=O)N[C@H](CCC(=O)O)C(=O)O)cc3)nc2)cc1` [Compound 331]: the EC50 lay in the range of 800 to 2500 nM.

With `CCCCCCCOc1ccc(-c2cnc(-c3ccc(C[C@H](NC(=O)c4ccc(C(C)(C)C)s4)C(=O)N[C@@H](Cc4cnc[nH]4)C(=O)O)cc3)nc2)cc1` [Compound 332], the EC50 is 800 to 2500 nM.

`CCCCCCCOc1ccc(-c2cnc(-c3ccc(C[C@H](NC(=O)c4ccc(C(C)(C)C)s4)C(=O)N[C@@H](C)C(=O)O)cc3)nc2)cc1` [Compound 333]: the EC50 was under 800 nM.

With `CCCCCCCOc1ccc(-c2cnc(-c3ccc(C[C@H](NC(=O)c4ccc(C(C)(C)C)s4)C(=O)N(C)CCC(=O)O)cc3)nc2)cc1` [Compound 334], the EC50 lay within 800 to 2500 nM.

`CCCCCCCOc1ccc(-c2cnc(-c3ccc(C[C@H](NC(=O)c4ccc(C(C)(C)C)s4)C(=O)NC(C)(C)CC(=O)O)cc3)nc2)cc1` [Compound 335]: the EC50 is 800 to 2500 nM.

On to `CCCCCCCOc1ccc(-c2cnc(-c3ccc(C[C@H](NC(=O)c4ccc(C(C)(C)C)s4)C(=O)NCCC(=O)O)cc3)nc2)cc1` [Compound 336], for which the EC50 is under 800 nM.

In the case of `CCCCCCCOc1ccc(-c2cnc(-c3ccc(C[C@H](NC(=O)c4ccc(C(C)(C)C)s4)C(=O)NC(CN(C)C)C(=O)O)cc3)nc2)cc1` (stereo partly shown) [Compound 337], the EC50 fell in the range of 800 to 2500 nM.

`CCCCCCCOc1ccc(-c2cnc(-c3ccc(C[C@H](NC(=O)c4ccc(C(C)(C)C)s4)C(=O)NC(CN4CCCC4)C(=O)O)cc3)nc2)cc1` (stereo partly shown) [Compound 338]: the EC50 lay in the range of 800 to 2500 nM.

For the compound `CCCCCCCOc1ccc(-c2cnc(-c3ccc(C[C@H](NC(=O)c4ccc(C(C)(C)C)s4)C(=O)N4CCNC(C(=O)O)C4)cc3)nc2)cc1` (stereo partly shown) [Compound 339], the EC50 lay in the range of 800 to 2500 nM.

Consider `CCCCCCCOc1ccc(-c2cnc(-c3ccc(C[C@H](NC(=O)c4ccc(C(C)(C)C)s4)C(=O)NCC4(C(=O)O)CC4)cc3)nc2)cc1` [Compound 340], for which the EC50 is 800 to 2500 nM.

As to `CCCCCCCOc1ccc(-c2cnc(-c3ccc(C[C@H](NC(=O)c4ccc(C(C)(C)C)s4)C(=O)N[C@H](CCC(N)=O)C(=O)O)cc3)nc2)cc1` [Compound 341], the EC50 was under 800 nM.

Consider `CCCCCCOc1ccc(-c2cnc(-c3ccc(C[C@H](NC(=O)c4ccc(C(C)(C)C)s4)C(=O)NCC4(C(=O)O)CCC4)cc3)nc2)cc1` [Compound 342], for which the EC50 lay in the range of 800 to 2500 nM.

`CCCCCCCOc1ccc(-c2cnc(-c3ccc(C[C@H](NC(=O)c4ccc(C(C)(C)C)s4)C(=O)N[C@H](CC(=O)O)Cc4ccccc4)cc3)nc2)cc1` [Compound 343]: the EC50 fell in the range of 800 to 2500 nM.
